Test system: PC3 cells
Assay: xCELLigence RTCA real-time cell invasion assay (CIM plate, Matrigel) on PC3 prostate cancer cells
Type: cell-based
Settings: Homo sapiens, PC-3, compound 25 uM to 1 uM, cell index monitored for 72 hours, four-parameter dose-response curve, read-out: IC50, Effect of compounds on the invention on prostate cancer cells
Experimental: The media antibiotics and serum were purchased from Invitrogen (Life Technologies). PC3 cells were purchased from ATCC (Granville, NSW, Australia). PC3 cells were expanded in cell culture T75 flasks with vented cap and then preserved in low passage number. The medium used for PC3 cells was RPMI (GlutaMAX) supplemented with 10% FCS and 1% penicillin/streptomycin (culture media). The cells were maintained at 37° C. in a humidified 95% (v/v) air/5% (v/v) CO2 environment and were grown up to 80% confluence.
XCELLigence® real-time cell analysis (RTCA) instrument (ACEA Biosciences), 16-well ACEA CIM-Plates, 16-well ACEA E-Plat and assembly tool were purchased from ELITechGroup empowering IVD (Braeside, Australia). The Matrigel was purchased from Corning (Australia).
To measure cell invasion under compound treatment the upper chamber of the CIM plate was coated with 5% Matrigel diluted in SF RPMI (20 μl) and incubated in a 37° C. tissue culture incubator for four hours. Using the assembly tool to support the chambers the lower chamber was filled with (160 μl) of culture media containing the compound in specific concertation from 25 uM to 1 uM and two controls (DMSO 0.1% and ESFAM 4C 10 uM) (see the schematic in FIG. 1). Once the upper chamber was placed on the top of the lower chamber it was loaded with (40 μl) serum-free (SF) RPMI containing the compound as previously stated. After one hour calibration in 37° C., plates were placed into the xCELLigence station, and the base-line electric impedance was measured to confirm that all wells and connections were working properly. In case of connection problem, the software automatically informs the researcher about the nature of the problem in the message section. Subsequently cells were trypsinized and upon harvesting and counting they were diluted in SF RPMI to desired density (3×10^4) and seeded (100 μl) in the wells. After 30 minutes of incubation in room-temperature to allow cell attachment the plates were loaded in the xCELLigence RTCA DP machine. The cell invasion was monitored in real-time for the duration of 72 hours. […]
The xCELLigence system automatically monitored the electrical impedance value of each well and expressed as a cell index (CI) value for the duration of 72 hours. The data for treatments was automatically grouped as the mean±standard deviation. The software version used in these experiments is 1.2.1. The electronic record of the experimental data is automatically saved in file that cannot be altered or changed by the researcher.
Statistical analysis was performed using Microsoft® Office EXCEL and GraphPad Prism 7. The IC50 was calculated from the four-parameter dose-response curve (log(inhibitor) vs. response-variable slopes). Where the row-data was inserted in GraphPad Prism 7 (Dose response x-log(dose)) and analysed for XY nonlinear regression (curve fit), dose response-inhibition, log(inhibitor) vs response variable slope (four parameters). For the IC90 calculation the log(IC50)=log(IC90)-(1/HillSlope)*log(9) equation was used in EXCEL based on the raw data extracted from xCELLigence system and the dose-response curve.

| Structure (SMILES) | IC50 [µM] |
| --- | --- |
| Cc1c(C(=O)Nc2cccc(OC(F)(F)F)c2)nn2c(-c3cn[nH]c3)cc(N3Cc4ccccc4C3)nc12 [Compound 67, 5-(isoindolin-2-yl)-3-methyl-7-(1H-pyrazol-4-yl)-N-(3-(trifluoromethoxy)phenyl)pyrazolo[1,5-a]pyrimidine-2-carboxamide] | 5.94 |
| Cn1cc(-c2cc(N3Cc4ccccc4C3)nc3cc(C(=O)Nc4cccc(O)c4)nn23)cn1 [Compound 58, N-(3-hydroxyphenyl)-5-(isoindolin-2-yl)-7-(1-methyl-1H-pyrazol-4-yl)pyrazolo[1,5-a]pyrimidine-2-carboxamide] | 10.1 |
| CC(=O)N1CCN(c2ccc(NC(=O)c3nn4c(-c5cn[nH]c5)cc(N5Cc6ccc(Cl)cc6C5)nc4c3C(C)C)cc2)CC1 [Compound 84, N-(4-(4-acetylpiperazin-1-yl)phenyl)-5-(5-chloroisoindolin-2-yl)-3-isopropyl-7-(1H-pyrazol-4-yl)pyrazolo[1,5-a]pyrimidine-2-carboxamide] | 1.1 |
| COCCOc1ccc(NC(=O)c2nn3c(-c4cn[nH]c4)cc(N4Cc5ccc(Cl)cc5C4)nc3c2C(C)C)cc1 [Compound 109, 5-(5-chloroisoindolin-2-yl)-3-isopropyl-N-(4-(2-methoxyethoxy)phenyl)-7-(1H-pyrazol-4-yl)pyrazolo[1,5-a]pyrimidine-2-carboxamide] | 3.23 |
| CC(C)c1c(C(=O)Nc2cccc(O)c2)nn2c(-c3cn[nH]c3)cc(N3Cc4ccc(F)cc4C3)nc12 [Compound 99, 5-(5-fluoroisoindolin-2-yl)-N-(3-hydroxyphenyl)-3-isopropyl-7-(1H-pyrazol-4-yl)pyrazolo[1,5-a]pyrimidine-2-carboxamide] | 1.23 |
| CC(C)c1c(C(=O)Nc2cccc(OC3CCOCC3)c2)nn2c(-c3cn[nH]c3)cc(N3Cc4ccc(F)cc4C3)nc12 [Compound 121, 5-(5-fluoroisoindolin-2-yl)-3-isopropyl-7-(1H-pyrazol-4-yl)-N-(3-((tetrahydro-2H-pyran-4-yl)oxy)phenyl)pyrazolo[1,5-a]pyrimidine-2-carboxamide] | 2.75 |
| CC(=O)N1CCN(c2cccc(NC(=O)c3nn4c(-c5cn[nH]c5)cc(N5Cc6ccc(Cl)cc6C5)nc4c3C(C)C)c2)CC1 [Compound 83, N-(3-(4-acetylpiperazin-1-yl)phenyl)-5-(5-chloroisoindolin-2-yl)-3-isopropyl-7-(1H-pyrazol-4-yl)pyrazolo[1,5-a]pyrimidine-2-carboxamide] | 10.1 |
| O=C(Nc1cccc(OC2CCC2)c1)c1cc2nc(N3Cc4ccccc4C3)cc(-c3cn[nH]c3)n2n1 [Compound 50, N-(3-cyclobutoxyphenyl)-5-(isoindolin-2-yl)-7-(1H-pyrazol-4-yl)pyrazolo[1,5-a]pyrimidine-2-carboxamide] | 1.46 |
| COc1cccc(NC(=O)c2cc3nc(N4Cc5ccc(F)cc5C4)cc(-c4cn[nH]c4)n3n2)c1 [Compound 63, 5-(5-fluoroisoindolin-2-yl)-N-(3-methoxyphenyl)-7-(1H-pyrazol-4-yl)pyrazolo[1,5-a]pyrimidine-2-carboxamide] | 4.65 |
| CC(=O)Nc1cccc(NC(=O)c2nn3c(-c4cn[nH]c4)cc(N4Cc5ccc(Cl)cc5C4)nc3c2C(C)C)c1 [Compound 82, N-(3-acetamidophenyl)-5-(5-chloroisoindolin-2-yl)-3-isopropyl-7-(1H-pyrazol-4-yl)pyrazolo[1,5-a]pyrimidine-2-carboxamide] | 2.92 |
| CC(=O)Nc1cccc(NC(=O)c2nn3c(-c4cn[nH]c4)cc(N4Cc5ccccc5C4)nc3c2C2CC2)c1 [Compound 97, N-(3-acetamidophenyl)-3-cyclopropyl-5-(isoindolin-2-yl)-7-(1H-pyrazol-4-yl)pyrazolo[1,5-a]pyrimidine-2-carboxamide] | 1.08 |

The remaining lines, values ahead:

| IC50 [µM] | Structure (SMILES) |
| --- | --- |
| 3.96 | COc1ccccc1CN(C)c1cc(-c2cn[nH]c2)n2nc(C(=O)Nc3ccc(Cl)cc3)cc2n1 [Compound 40, N-(4-chlorophenyl)-5-((2-methoxybenzyl)(methyl)amino)-7-(1H-pyrazol-4-yl)pyrazolo[1,5-a]pyrimidine-2-carboxamide] |
| 11.9 | CN(Cc1ccccc1)c1cc(-c2cn[nH]c2)n2nc(C(=O)NCc3ccccc3)cc2n1 [Compound 3, N-benzyl-5-(benzyl(methyl)amino)-7-(1H-pyrazol-4-yl)pyrazolo[1,5-a]pyrimidine-2-carboxamide] |
| 2.59 | CN(Cc1ccccc1)c1cc(-c2cn[nH]c2)n2nc(C(=O)Nc3cccc(C(F)(F)F)c3)cc2n1 [Compound 33, 5-(benzyl(methyl)amino)-7-(1H-pyrazol-4-yl)-N-(3-(trifluoromethyl)phenyl)pyrazolo[1,5-a]pyrimidine-2-carboxamide] |
| 1.34 | CC(C)c1c(C(=O)Nc2cccc(O)c2)nn2c(-c3cn[nH]c3)cc(N(C)Cc3ccccc3)nc12 [Compound 74, 5-(benzyl(methyl)amino)-N-(3-hydroxyphenyl)-3-isopropyl-7-(1H-pyrazol-4-yl)pyrazolo[1,5-a]pyrimidine-2-carboxamide] |
| 6.9 | CN(Cc1ccccc1)c1cc(-c2cn[nH]c2)n2nc(C(=O)Nc3cccc(O)c3)cc2n1 [Compound 1, 5-(benzyl(methyl)amino)-N-(3-hydroxyphenyl)-7-(1H-pyrazol-4-yl)pyrazolo[1,5-a]pyrimidine-2-carboxamide] |
| 2.86 | CN(Cc1cccc(C(F)(F)F)c1)c1cc(-c2cn[nH]c2)n2nc(C(=O)Nc3ccc(Cl)cc3)cc2n1 [Compound 42, N-(4-chlorophenyl)-5-(methyl(3-(trifluoromethyl)benzyl)amino)-7-(1H-pyrazol-4-yl)pyrazolo[1,5-a]pyrimidine-2-carboxamide] |
| 1.4 | CN(Cc1ccccc1)c1cc(-c2cn[nH]c2)n2nc(C(=O)Nc3ccc(F)cc3)cc2n1 [Compound 35, 5-(benzyl(methyl)amino)-N-(4-fluorophenyl)-7-(1H-pyrazol-4-yl)pyrazolo[1,5-a]pyrimidine-2-carboxamide] |
| 1.42 | O=C(Nc1cccc(O)c1)c1cc2nc(N3Cc4ccccc4C3)cc(-c3cn[nH]c3)n2n1 [Compound 24, N-(3-hydroxyphenyl)-5-(isoindolin-2-yl)-7-(1H-pyrazol-4-yl)pyrazolo[1,5-a]pyrimidine-2-carboxamide] |
| 9.71 | CN(Cc1ccccc1)c1cc(-c2cn[nH]c2)n2nc(C(=O)Nc3cn[nH]c3)cc2n1 [Compound 11, 5-(benzyl(methyl)amino)-N,7-di(1H-pyrazol-4-yl)pyrazolo[1,5-a]pyrimidine-2-carboxamide] |
| 150 | C[C@@H](c1ccccc1)N(C)c1cc(-c2cn[nH]c2)n2nc(C(=O)Nc3ccccc3)cc2n1 [Compound 16, (S)-5-(methyl(1-phenylethyl)amino)-N-phenyl-7-(1H-pyrazol-4-yl)pyrazolo[1,5-a]pyrimidine-2-carboxamide] |
| 9.67 | C[C@@H](c1ccccc1)N(C)c1cc(-c2cn[nH]c2)n2nc(C(N)=O)cc2n1 [Compound 17, (S)-5-(methyl(1-phenylethyl)amino)-7-(1H-pyrazol-4-yl)pyrazolo[1,5-a]pyrimidine-2-carboxamide] |
| 3.58 | CN(Cc1ccccc1)c1cc(-c2cn[nH]c2)n2nc(C(=O)Nc3ccc(Cl)cc3)cc2n1 [Compound 29, 5-(benzyl(methyl)amino)-N-(4-chlorophenyl)-7-(1H-pyrazol-4-yl)pyrazolo[1,5-a]pyrimidine-2-carboxamide] |
| 4.28 | COc1cc(NC(=O)c2cc3nc(N(C)Cc4ccccc4)cc(-c4cn[nH]c4)n3n2)cc(OC)c1 [Compound 9, 5-(benzyl(methyl)amino)-N-(3,5-dimethoxyphenyl)-7-(1H-pyrazol-4-yl)pyrazolo[1,5-a]pyrimidine-2-carboxamide] |
| 9.49 | CN(Cc1ccccc1)c1cc(-c2cn[nH]c2)n2nc(C(=O)Nc3ccncc3)cc2n1 [Compound 7, 5-(benzyl(methyl)amino)-7-(1H-pyrazol-4-yl)-N-(pyridin-4-yl)pyrazolo[1,5-a]pyrimidine-2-carboxamide] |
| 5.52 | COc1cc(Cl)cc(NC(=O)c2cc3nc(N4Cc5ccccc5C4)cc(-c4cn[nH]c4)n3n2)c1 [Compound 52, N-(3-chloro-5-methoxyphenyl)-5-(isoindolin-2-yl)-7-(1H-pyrazol-4-yl)pyrazolo[1,5-a]pyrimidine-2-carboxamide] |

Source: patent US12215112B2, “CD151 inhibitors” (ESFAM BIOTECH PTY LTD, priority 2020, dated 2025)
